Legend:
[1] = observation of side effects in treated tumor-bearing animals; format: in vivo, mice; conditions: animals treated with taxol; preliminary observations
From the text: Another potential advantage of signal therapy over the conventional drug therapy is the potential for reduced side effects.

[2] = test system: U87 glioblastoma cells; test: intracranial U87 glioblastoma tumor study in mice; format: in vivo; conditions: tumor-bearing animals treated with taxol compound over the same 23 day period
[3] = test system: tubulin; test: electron microscopy of tubulin assay samples; format: biochemical; conditions: 10 minutes exposure to 4 μM taxol
From the text: The assay samples from above were examined by electron microscopy to confirm that the nature of the microtubule polymers formed in the assay, either by the addition of taxol or the taxol-derived time-domain signal. FIGS. 10A-10F are photo electron micrographs, taken at 21,000× and 52,000× magnification, of a tubulin suspension for untreated control (FIGS. 10A and 10B), cremaphore alone, FIGS. 10C, 10D), and the tubulin suspension exposed to the magnetic field of a white-noise signal. Each sample was allowed to incubate in the system cell for 10 minutes under the conditions described, then placed on ice and immediately after cooling, placed on an EM grid and fixed for with stain. No evidence of significant tubulin formation is observed in any of these samples.
FIGS. 12A-12D show the morphology of the tubulin assay samples after 10 minutes exposure to 4 μM taxol, where the samples were cooled after 10 minutes and prepared for EM as above.
FIGS. 13A-13D show the morphology of the tubulin assay samples after 10 minutes exposure to the above M2(3) taxol-derived time-domain signal. 4 μM taxol, where the samples were cooled after 10 minutes and prepared for EM as above.

[4] = test system: tubulin; test: in vitro tubulin polymerization (aggregation) assay, absorbance at 340 nm; format: biochemical; conditions: 4 μM taxol, tubulin 1.5 mg/ml in GPEM buffer, first ten minutes
Procedure: The M2(3) and a number of other high-score signals were tested for their ability to stabilize tubulin polymerization, employing the transduction system described above with reference to FIG. 7A. […] This assay has been described, for example, in Shelanski, M. L., Gaskin, F. and Cantor, C. R. (1973). Microtubule assembly in the absence of added nucleotides. Proc. Natl. Acad. Sci. U.S.A. 70, 765-768; and Lee, J. C. and Timasheff, S. N. (1977). In vitro reconstitution of calf brain microtubules: effects of solution variable. Biochemistry, 16, 1754-1762.
The M2(3) and a number of other high-score taxol signals were tested for their ability to stabilize tubulin polymerization. […] Change in optical absorption at 340 nm was measured continuously for each sample, and the OD340 data was used to calculate a rate of tubulin polymerization (dA/minute at 340 nm) at each one minute interval during the transduction study.
The results of the study, expressed as rate or tubulin polymerization over the first ten minutes of the study, are shown in FIGS. 9A and 9B.

## CC(=O)O[C@H]1C(=O)[C@@]2(C)[C@H]([C@H](OC(=O)c3ccccc3)[C@]3(O)C[C@H](OC(=O)[C@H](O)[C@@H](NC(=O)c4ccccc4)c4ccccc4)C(C)=C1C3(C)C)[C@]1(OC(C)=O)CO[C@@H]1C[C@@H]2O [taxol, taxol (paclitaxel)]
[1]
  side effects (activity, behavior, appetite): showed the expected signs of lethargy and loss of appetite
[2]
  tumor volume result compared with signal treatment: A similar result was seen
[3]
  morphology of tubulin assay samples (EM): A number of well-developed microtubular structures, including multi-lamellar structures are seen
[4]
  increase in absorbance (tubulin polymerization) over the tubulin control: increased more than twofold

Reference: patent publication US20130165734A1, “TIME-DOMAIN TRANSDUCTION SIGNALS AND METHODS OF THEIR PRODUCTION AND USE” (Nativis, Inc., priority 2009, published 2013)
